The target of one series is T1, human GLP-1R receptor (Homo sapiens, UniProt P43220).
T1 construct: expressed in transfected cells
Kind of series: GLP-1R low expression cell assay (cAMP TR-FRET, CHO-K1_hGLP-1Rlow_clone10 cells). Type of series: cell-based. Particulars: for EC50: cAMP TR-FRET, 30 min at 25° C.; for Emax: maximum activation relative to control GLP-1 peptide agonist. The method in brief: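 CHO-K1 cells stably expressing low surface human GLP-1R (clone10), 1,000 cells/well, exposed to 10-point 3-fold compound dilutions for 30 min at 25 °C. cAMP measured by TR-FRET (Eu-cAMP tracer/ULight-anti-cAMP, 15 min). EC50 from Hill fit of duplicate percent activation relative to a parallel GLP-1 control agonist.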
A general note: Time-resolved FRET reads energy transfer from a long-lived donor to a nearby acceptor.

Series [1] in a line: Rat pharmacokinetics, oral dosing. It is filed as in vivo, Sprague-Dawley rats. The note with it: male, Sprague-Dawley, plasma; for half-life: read-out: Rat T1/2.

The structures appear in SMILES notation. Read-outs that look alike come from different tables or passages of the source.

T1 sequence (P43220 24-463): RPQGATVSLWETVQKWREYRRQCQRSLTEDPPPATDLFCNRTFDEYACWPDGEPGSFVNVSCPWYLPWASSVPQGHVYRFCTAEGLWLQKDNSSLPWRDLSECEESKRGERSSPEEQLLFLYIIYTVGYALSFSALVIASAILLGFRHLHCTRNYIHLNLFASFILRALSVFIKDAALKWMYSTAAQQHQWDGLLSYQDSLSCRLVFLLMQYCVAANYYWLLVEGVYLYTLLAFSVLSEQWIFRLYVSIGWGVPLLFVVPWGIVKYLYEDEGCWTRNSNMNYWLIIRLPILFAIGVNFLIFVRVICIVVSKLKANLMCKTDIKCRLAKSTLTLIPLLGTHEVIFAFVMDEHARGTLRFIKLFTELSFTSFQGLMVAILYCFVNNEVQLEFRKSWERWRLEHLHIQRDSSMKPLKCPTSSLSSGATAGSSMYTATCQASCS

For orientation: EC50 means the concentration at which the effect is half-maximal. Higher therefore signals weaker potency. What is called Emax is the size of the effect at its maximum, as opposed to the concentration needed. As a reminder, the AUC is the area under the concentration-time curve, a measure of exposure. A word on the Cmax: it is the highest concentration seen after dosing. What is called bioavailability is dose-corrected exposure relative to a reference, in per cent. `COc1cc(C(=O)O)cc2c1nc(CN1CCC(c3cccc(OCc4ccc(C#N)cc4F)n3)CC1)n2Cc1cncs1` [Compound 1, 2-((4-(6-((4-Cyano-2-fluorobenzyl)oxy)pyridin-2-yl)piperidin-1-yl)methyl)-4-methoxy-1-(thiazol-5-ylmethyl)-1H-benzo[d]imidazole-6-carboxylic acid]: on human GLP-1R receptor, the EC50 was < 10 nM and the Emax is > 85%. Further, in series [1] (oral dosing at 10 mg/kg), the AUC fell in the range of 500 to 2500 ng·h/mL, the peak concentration (Cmax) was in the range of 500 to 1000 ng/mL, the half-life fell in the range of 1.5 to 2.5 h and the bioavailability lay in the range of 25 to 50%.

In the case of `COc1cc(C(=O)O)cc2c1nc(CN1CCC(c3cccc(OCc4ccc(C#N)cc4F)n3)CC1)n2C[C@@H]1CCO1` [Compound 8, (S)-2-((4-(6-((4-Cyano-2-fluorobenzyl)oxy)pyridin-2-yl)piperidin-1-yl)methyl)-4-methoxy-1-(oxetan-2-ylmethyl)-1H-benzo[d]imidazole-6-carboxylic acid], on human GLP-1R receptor, the half-maximal effective concentration (EC50) was < 10 nM and the Emax was > 85%. In addition, in series [1] (oral dosing at 3 mg/kg), the AUC was < 500 ng·h/mL, the Cmax was < 500 ng/mL, the half-life is ≥ 2.5 h and the bioavailability was < 25%.

These data come from patent publication US20240368120A1 (Terns Pharmaceuticals, Inc., priority 2023, published 2024).
